Experimental data taken from ChEMBL document CHEMBL1201862, “PubChem BioAssay data set” (2004).
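Exposure lasted 48 hours, with cells grown in 96-well plates and compounds tested at five concentrations. GI50: concentration for 50% inhibition of growth.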 Active and inactive are the calls of the source. Rule as the data show it: active = GI50 up to about 1.1 µM and inactive = higher.

Assays:
Experiment in all cases: NCI-60 cell line screen, 48 h
[1] = system: DLD-1
[2] = system: DMS-114
[3] = system: DMS-273
[4] = system: HOP-18
[5] = system: LXFL 529
[6] = system: M19-MEL
[7] = system: RXF 631
[8] = system: SNB-78
[9] = system: XF498

Measured: GI50

BrC1=CC=C2NC=CC3=CC=NC1C32 (stereo not drawn)
inactive: [1] 19 µM | [2] 14 µM | [3] 7.14 µM | [4] 14.1 µM | [5] 19.5 µM | [6] 14.1 µM | [7] 27.2 µM | [8] 29.6 µM | [9] 22.9 µM

CC(=O)Oc1cc2c(=O)oc3c(OC(C)=O)c(OC(C)=O)c(OC(C)=O)c4c(=O)oc(c1OC(C)=O)c2c34
inactive: [1] > 100 µM | [2] 21.6 µM | [3] > 100 µM | [4] 32.1 µM | [5] > 100 µM | [6] 17.9 µM | [7] 25.4 µM | [8] 39.4 µM | [9] 32.5 µM
